Patent US20240327364A1, “THERAPEUTIC TARGETING OF GPR68 TO INDUCE FERROPTOSIS” (University Of Maryland, Baltimore, priority 2023, published 2024)

Assays:
PFCDPK1(P. falciparum) = target: T1, PFCDPK1(P. falciparum) (Plasmodium falciparum, UniProt P62344); assay: KinomeScan; format: binding; details: read-out: % Control
T1 construct: purchased DiscoveRx (Fremont, CA)

[1] = target: T2, RSK4(Kin.Dom.2-C-terminal) (Homo sapiens, UniProt Q9UK32); assay: KinomeScan; format: binding; details: read-out: % Control
T2 construct: RSK4(Kin.Dom.2-C-terminal); purchased DiscoveRx (Fremont, CA)

PAK4 = target: T3, PAK4 (Homo sapiens, UniProt O96013); assay: KinomeScan; format: binding; details: read-out: % Control
T3 construct: purchased DiscoveRx

YES = target: T4, YES (Homo sapiens, UniProt P07947); assay: KinomeScan; format: binding; details: read-out: % Control
T4 construct: purchased DiscoveRx

MAPKAPK2 = target: T5, MAPKAPK2 (Homo sapiens, UniProt P49137); assay: KinomeScan; format: binding; details: read-out: % Control
T5 construct: purchased DiscoveRx (Fremont, CA)

[2] = target: T6, RSK3(Kin.Dom.2-C-terminal) (Homo sapiens, UniProt Q15349); assay: KinomeScan; format: binding; details: read-out: % Control
T6 construct: RSK3(Kin.Dom.2-C-terminal); purchased DiscoveRx (Fremont, CA)

CSNK2A2 = CSNK2A2 (Homo sapiens, UniProt P19784); assay: KinomeScan; format: binding; details: read-out: % Control
[3] = target: T7, ABL1(E255K)-phosphorylated (Homo sapiens, UniProt P00519, E255K); assay: KinomeScan; format: binding; details: read-out: % Control
T7 construct: purchased DiscoveRx

S1P1 = target: T8, S1P1 (Homo sapiens, UniProt P21453); assay: GPCR Profiler; format: cell-based
T8 construct: host or cells: Chem-1 cells with Gα15

PIK3CA(H1047Y) = target: T9, PIK3CA(H1047Y) (Homo sapiens, UniProt P42336, H1047Y); assay: KinomeScan; format: binding; details: read-out: % Control
T9 construct: purchased DiscoveRx (Fremont, CA)

PIK3CA(C420R) = target: T10, PIK3CA(C420R) (Homo sapiens, UniProt P42336, C420R); assay: KinomeScan; format: binding; details: read-out: % Control
T10 construct: purchased DiscoveRx (Fremont, CA)

BxPC-3 = assay: Cell Titer-Glo viability, Pancreatic adenocarcinoma; format: cell-based
Method: (§1) OGM2 kills wide variety of cancer cell types. Cell sensitivity can be classified in to Very Sensitive (LC50<2 μM), Sensitive (LC50=2 to 10 μM), Mildly Sensitive (LC50>10 μM), and Refractory (no killing at 10 μM). The listed established cell were incubated with OGM2 at 2 μM or 10 μM for 72 hours under standard cell culture conditions, and relative cell number was assessed using Cell Titer-Glo Luminescent Cell Viability Assay (Promega™) following the manufacturer's instructions. Luminescence was determined using a Cytation 5 reader and Gen5 software package (BioTek™).
(§2) Cancer cells, which are very sensitive to killing by OGM2 (LCs <2 μM), with reported mRNA expression of GPR68 and the related proton sensing receptor GPR4. LC50's (concentrations causing 50% lethality) were determined using CellTiter-Glo (Promega™, G7570). Cells were plated in 12-well plates (CELLTREAT Scientific Products, 229112) in 1 ml of DMEM with high glucose, GlutaMAX, HEPES, or RPMI 1640 with Penicillin-Streptomycin (ThermoFisher™, 10564029, 11875119 and 15140122) and 10% FBS. Cells were incubated overnight at 37° C. in 5% CO2. Then 1 mL of fresh media was added with DMSO, OGM, or positive control (Erastin; APExBIO Technology, LLC, B1524) and cells incubated for 3 days. On the third day, all media was removed, cells were rinsed with 1×PBS, PBS was removed, and 200 μL of 1× Passive Lysis Buffer (Promega™, E1941) was added to each well. […]. Subsequently, 20 μL of lysate was added to 100 μL CellTiter-Glo™ reagent on a LUMITRAC 200 plate (Greiner™ bio-one, 82050-726). Plates were briefly spun down and read on a GloMax-Multi Detection System (Promega™).
(§3) The cells listed in the tables above were incubated with OGM2 at 2 μM or 10 μM for 72 hours under standard cell culture conditions, and relative cell number was assessed using Cell Titer-Glo Luminescent Cell Viability Assay (Promega™) following the manufacturer's instructions. Luminescence was determined using a Cytation 5 reader and Gen5 software package (BioTek™). RNA expression of GPR68 and GPR4 in the corresponding cancer cell lines are listed, according to the publicly available The Human Protein Atlas version 22.0 and Ensembl version 103.38 (see proteinatlas.org). The consensus normalized expression value (“nTPM”=normalize transcript per million) was calculated as the maximum nTPM value for each gene in the two data sources.

Panc02 = assay: as above; format: cell-based
Method: as §1, §2, §3

Daoy = assay: Cell Titer-Glo viability, Medulloblastoma; format: cell-based; details: 72 hours
Method: as §1
as §2, with “Subsequently, 20 μL of lysate was added to 100 μL CellTiter-Glo™ reagent on a LUMITRAC 200 plate (Greiner™ bio-one, 82050-726).” left out
The cells listed in the tables above were incubated with OGM2 at 2 μM or 10 μM for 72 hours under standard cell culture conditions, and relative cell number was assessed using Cell Titer-Glo Luminescent Cell Viability Assay (Promega™) following the manufacturer's instructions. Luminescence was determined using a Cytation 5 reader and Gen5 software package (BioTek™). […] The consensus normalized expression value (“nTPM”=normalize transcript per million) was calculated as the maximum nTPM value for each gene in the two data sources.

T8 sequence (P21453 whole entry, species assumed): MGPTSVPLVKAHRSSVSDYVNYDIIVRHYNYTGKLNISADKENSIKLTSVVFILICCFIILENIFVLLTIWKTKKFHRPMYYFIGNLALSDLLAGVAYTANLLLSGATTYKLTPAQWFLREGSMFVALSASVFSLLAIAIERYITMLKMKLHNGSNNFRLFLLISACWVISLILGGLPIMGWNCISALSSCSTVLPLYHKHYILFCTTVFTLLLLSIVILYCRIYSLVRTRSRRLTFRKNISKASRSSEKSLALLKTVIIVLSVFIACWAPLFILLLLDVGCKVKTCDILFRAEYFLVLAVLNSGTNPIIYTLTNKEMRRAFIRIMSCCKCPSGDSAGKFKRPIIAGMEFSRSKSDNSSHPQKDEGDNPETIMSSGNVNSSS
T3 sequence (O96013 whole entry): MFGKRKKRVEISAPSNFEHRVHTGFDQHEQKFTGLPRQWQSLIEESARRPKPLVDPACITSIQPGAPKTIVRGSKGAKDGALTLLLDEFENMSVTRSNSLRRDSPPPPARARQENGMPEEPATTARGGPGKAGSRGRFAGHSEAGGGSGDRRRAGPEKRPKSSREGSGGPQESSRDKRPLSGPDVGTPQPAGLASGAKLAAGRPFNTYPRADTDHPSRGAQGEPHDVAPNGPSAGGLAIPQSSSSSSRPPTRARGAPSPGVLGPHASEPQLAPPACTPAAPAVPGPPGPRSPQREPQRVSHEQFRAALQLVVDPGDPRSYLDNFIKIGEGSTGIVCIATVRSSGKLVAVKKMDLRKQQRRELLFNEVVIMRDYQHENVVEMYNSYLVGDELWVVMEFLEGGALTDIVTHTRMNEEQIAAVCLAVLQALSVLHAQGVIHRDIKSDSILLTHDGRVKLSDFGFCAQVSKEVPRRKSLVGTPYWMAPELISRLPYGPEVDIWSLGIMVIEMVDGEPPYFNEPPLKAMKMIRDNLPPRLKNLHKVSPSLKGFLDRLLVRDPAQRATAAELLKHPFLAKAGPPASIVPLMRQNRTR
T7 sequence (P00519 242-493 E255K limits assumed): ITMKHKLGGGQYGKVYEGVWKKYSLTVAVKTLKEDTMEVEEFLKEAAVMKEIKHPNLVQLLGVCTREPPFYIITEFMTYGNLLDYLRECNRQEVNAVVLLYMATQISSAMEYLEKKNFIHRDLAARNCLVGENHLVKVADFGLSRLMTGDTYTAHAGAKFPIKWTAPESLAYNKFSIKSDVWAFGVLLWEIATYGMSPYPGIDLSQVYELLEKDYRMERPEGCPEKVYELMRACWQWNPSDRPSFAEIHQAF
T9 sequence (P42336 whole entry H1047Y): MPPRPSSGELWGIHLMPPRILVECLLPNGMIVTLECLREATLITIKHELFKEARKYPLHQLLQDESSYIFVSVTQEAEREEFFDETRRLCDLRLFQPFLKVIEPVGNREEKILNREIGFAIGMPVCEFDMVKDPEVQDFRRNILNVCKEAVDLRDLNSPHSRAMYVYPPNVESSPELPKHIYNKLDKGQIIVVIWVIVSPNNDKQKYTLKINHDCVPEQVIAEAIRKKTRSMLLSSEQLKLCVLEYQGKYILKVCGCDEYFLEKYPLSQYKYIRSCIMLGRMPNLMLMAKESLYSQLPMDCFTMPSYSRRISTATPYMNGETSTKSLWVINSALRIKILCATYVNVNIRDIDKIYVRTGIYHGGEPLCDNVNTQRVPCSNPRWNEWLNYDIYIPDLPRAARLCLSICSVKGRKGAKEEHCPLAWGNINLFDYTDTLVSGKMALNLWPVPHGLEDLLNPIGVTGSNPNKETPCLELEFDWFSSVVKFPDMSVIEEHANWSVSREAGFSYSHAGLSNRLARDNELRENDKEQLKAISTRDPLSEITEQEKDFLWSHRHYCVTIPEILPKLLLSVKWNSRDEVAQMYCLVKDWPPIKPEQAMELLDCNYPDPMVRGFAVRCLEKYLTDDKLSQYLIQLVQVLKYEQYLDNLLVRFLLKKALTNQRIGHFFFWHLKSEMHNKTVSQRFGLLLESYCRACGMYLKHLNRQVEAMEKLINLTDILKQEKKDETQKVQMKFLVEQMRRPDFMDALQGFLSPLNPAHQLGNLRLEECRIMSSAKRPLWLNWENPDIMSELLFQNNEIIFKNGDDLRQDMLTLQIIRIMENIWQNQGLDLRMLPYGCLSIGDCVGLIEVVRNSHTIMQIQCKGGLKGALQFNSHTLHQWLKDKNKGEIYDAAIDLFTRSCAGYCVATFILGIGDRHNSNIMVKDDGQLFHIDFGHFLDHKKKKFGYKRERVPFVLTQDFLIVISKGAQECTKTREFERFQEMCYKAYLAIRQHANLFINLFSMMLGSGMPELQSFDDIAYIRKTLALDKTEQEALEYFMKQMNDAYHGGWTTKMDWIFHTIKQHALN
T4 sequence (P07947 whole entry): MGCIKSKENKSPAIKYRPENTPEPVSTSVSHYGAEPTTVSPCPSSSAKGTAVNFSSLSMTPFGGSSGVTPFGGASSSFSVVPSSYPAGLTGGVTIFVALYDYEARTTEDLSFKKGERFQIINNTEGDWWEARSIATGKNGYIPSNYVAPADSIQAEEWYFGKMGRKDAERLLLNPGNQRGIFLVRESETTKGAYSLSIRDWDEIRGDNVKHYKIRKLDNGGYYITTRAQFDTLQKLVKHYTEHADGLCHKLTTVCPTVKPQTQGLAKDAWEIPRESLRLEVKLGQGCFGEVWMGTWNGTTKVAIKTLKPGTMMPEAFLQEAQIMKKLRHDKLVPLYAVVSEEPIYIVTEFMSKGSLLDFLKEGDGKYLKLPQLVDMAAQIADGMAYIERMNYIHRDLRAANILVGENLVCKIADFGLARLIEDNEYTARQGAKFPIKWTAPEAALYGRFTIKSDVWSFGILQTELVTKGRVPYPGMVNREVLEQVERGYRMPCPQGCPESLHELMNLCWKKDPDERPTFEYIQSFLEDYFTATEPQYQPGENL
Sequence of CSNK2A2 (P19784 whole entry): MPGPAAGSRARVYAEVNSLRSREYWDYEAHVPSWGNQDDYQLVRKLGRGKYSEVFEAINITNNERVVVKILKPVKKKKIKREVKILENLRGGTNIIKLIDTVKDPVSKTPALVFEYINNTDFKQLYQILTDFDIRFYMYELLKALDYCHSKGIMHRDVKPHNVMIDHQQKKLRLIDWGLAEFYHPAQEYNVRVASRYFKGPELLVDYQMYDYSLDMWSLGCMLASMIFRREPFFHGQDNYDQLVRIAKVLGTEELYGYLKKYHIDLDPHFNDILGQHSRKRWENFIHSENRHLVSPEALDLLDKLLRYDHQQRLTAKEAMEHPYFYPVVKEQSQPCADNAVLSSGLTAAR
T5 sequence (P49137 whole entry): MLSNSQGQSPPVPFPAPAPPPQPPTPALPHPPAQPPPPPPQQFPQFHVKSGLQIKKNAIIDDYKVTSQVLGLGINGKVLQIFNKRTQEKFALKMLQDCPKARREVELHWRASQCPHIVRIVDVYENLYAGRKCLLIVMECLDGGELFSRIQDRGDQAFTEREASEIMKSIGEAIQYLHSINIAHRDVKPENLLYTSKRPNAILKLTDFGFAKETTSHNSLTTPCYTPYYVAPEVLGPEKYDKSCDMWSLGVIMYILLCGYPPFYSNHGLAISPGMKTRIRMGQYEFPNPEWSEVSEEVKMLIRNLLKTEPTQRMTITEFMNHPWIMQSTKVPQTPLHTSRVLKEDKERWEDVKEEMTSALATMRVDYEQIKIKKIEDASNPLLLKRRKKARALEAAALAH
T6 sequence (Q15349 415-672 limits assumed): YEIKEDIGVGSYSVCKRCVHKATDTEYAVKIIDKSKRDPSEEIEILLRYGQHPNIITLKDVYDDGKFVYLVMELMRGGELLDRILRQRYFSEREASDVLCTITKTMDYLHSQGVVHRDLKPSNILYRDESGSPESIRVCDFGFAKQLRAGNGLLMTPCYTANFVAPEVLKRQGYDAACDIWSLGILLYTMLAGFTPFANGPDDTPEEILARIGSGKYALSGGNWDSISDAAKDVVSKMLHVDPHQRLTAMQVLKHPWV
T1 sequence (P62344 whole entry): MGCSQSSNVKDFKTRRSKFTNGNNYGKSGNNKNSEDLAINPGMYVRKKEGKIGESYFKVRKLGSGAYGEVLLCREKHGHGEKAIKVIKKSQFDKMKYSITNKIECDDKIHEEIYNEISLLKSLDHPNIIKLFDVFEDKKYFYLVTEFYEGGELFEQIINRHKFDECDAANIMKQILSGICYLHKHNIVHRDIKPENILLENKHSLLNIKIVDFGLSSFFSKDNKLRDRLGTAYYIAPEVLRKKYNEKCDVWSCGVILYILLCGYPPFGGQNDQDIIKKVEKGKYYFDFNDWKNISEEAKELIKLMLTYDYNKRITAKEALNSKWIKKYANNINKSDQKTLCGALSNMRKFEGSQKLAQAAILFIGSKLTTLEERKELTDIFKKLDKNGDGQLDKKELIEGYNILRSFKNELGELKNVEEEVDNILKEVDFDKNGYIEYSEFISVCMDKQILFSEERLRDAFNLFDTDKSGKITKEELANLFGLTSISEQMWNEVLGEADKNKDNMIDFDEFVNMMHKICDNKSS
T10 sequence (P42336 whole entry C420R): as the sequence (P42336 whole entry H1047Y) above, with C420R, Y1047H counted along it
T2 sequence (Q9UK32 426-683 limits assumed): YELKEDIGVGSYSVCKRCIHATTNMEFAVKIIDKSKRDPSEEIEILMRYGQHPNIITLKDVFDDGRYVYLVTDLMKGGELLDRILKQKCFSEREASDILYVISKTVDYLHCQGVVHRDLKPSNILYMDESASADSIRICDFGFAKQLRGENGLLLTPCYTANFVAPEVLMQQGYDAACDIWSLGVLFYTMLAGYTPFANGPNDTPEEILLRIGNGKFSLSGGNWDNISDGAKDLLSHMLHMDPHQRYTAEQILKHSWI

## CCc1ccc2c(c1)C1(NN=C(c3cccc4ccccc34)S1)C(=O)N2 (centres unmarked) [OGM1, 5-ethyl-5′-naphthalen-1-ylspiro[1H-indole-3,2′-3H-1,3,4-thiadiazole]-2-one]
PFCDPK1(P. falciparum)
  remaining binding at 10 µM: 95%
[1]
  remaining binding at 10 µM: 41%
PAK4
  remaining binding at 10 µM: 66%
YES
  remaining binding at 10 µM: 100%
MAPKAPK2
  remaining binding at 10 µM: 100%
[2]
  remaining binding at 10 µM: 54%
CSNK2A2
  remaining binding at 10 µM: 93%
[3]
  remaining binding at 10 µM: 77%
S1P1; 10 uM
  Antagonism: 3.1
S1P1; 12.5 uM
  Agonism: −0.4
PIK3CA(H1047Y)
  remaining binding at 10 µM: 59%
PIK3CA(C420R)
  remaining binding at 10 µM: 100%

## CCc1ccc2c(c1)C1(NN=C(c3ccccc3)S1)C(=O)N2 (centres unmarked) [OGM2]
BxPC-3
  Class: Mildly
BxPC-3; 72 hours
  % Survival 2 μM OGM: 81.5%
  % Survival 10 μM OGM: 83.8%
BxPC-3; Homo sapiens, BXPC-3, 72 hours, read-out: LC50 (the source's name)
  CC50: > 10 µM
Panc02
  Class: Sensitive (Sensitive (LC50=2 to 10 μM))
Panc02; 72 hours
  % Survival 2 μM OGM: 72.5%
  % Survival 10 μM OGM: 40.5%
Panc02; Mus musculus, Panc02, 72 hours, read-out: LC50 (the source's name)
  CC50: 2 to 10 µM
Daoy
  % Survival 2 μM OGM: 9.0%
  % Survival 10 μM OGM: 10.5%
Daoy; Homo sapiens, Daoy, read-out: LC50 (the source's name)
  CC50: < 2000 nM
